# Biological target: T1, sPHEX (Homo sapiens, UniProt P78562)
# T1 construct: The soluble form of the metallopeptidase PHEX (sPHEX) was purified to homogeneity; made in house
# T1 sequence (P78562 53-749 limits assumed): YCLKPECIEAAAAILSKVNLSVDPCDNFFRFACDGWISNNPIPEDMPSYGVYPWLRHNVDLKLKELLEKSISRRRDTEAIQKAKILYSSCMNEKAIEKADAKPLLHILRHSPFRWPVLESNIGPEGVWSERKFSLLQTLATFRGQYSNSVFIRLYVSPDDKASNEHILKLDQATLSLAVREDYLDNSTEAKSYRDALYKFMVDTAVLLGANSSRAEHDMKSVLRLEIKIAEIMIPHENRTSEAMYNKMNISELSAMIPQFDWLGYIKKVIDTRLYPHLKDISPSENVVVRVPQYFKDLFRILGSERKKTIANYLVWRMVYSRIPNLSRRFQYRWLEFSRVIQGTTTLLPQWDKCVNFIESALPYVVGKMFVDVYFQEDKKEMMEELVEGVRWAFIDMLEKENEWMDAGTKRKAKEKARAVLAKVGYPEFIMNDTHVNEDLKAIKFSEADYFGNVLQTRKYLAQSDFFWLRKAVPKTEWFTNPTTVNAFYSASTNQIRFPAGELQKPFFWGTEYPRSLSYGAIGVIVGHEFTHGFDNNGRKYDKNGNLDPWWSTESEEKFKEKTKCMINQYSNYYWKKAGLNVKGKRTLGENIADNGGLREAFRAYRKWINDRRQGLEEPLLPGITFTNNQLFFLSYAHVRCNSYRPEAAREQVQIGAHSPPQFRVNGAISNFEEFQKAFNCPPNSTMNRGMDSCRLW
# Test: sPHEX inhibitor IC50 determination using a fluorogenic substrate (Abz-GFSDYK-Dnp, S3)
# Format: biochemical
# Details: fluorogenic substrate 20 μM, 100 ng sPHEX, pH 6.5
# Description: The soluble form of the metallopeptidase PHEX (sPHEX) was purified to homogeneity according to the methods of Boileau and Crine (WO 00/50580). sPHEX quantity was measured with the Bradford assay (BioRad) using BSA as a standard.
# sPHEX activity was determined using a fluorogenic substrate in which an increase of fluorescence was proportional to substrate conversion to products.
# S3 was synthesized at Dr. Gilles Lajoie's laboratories (University of Western Ontario, Canada) by standard solid phase peptide synthesis. The fluorescent reaction product was excited at 320 nm to fluoresce at 420 nm. Fluorescence was recorded at 420 nm every five minutes over a one-hour period on a fluorescence plate reader (Perkin-Elmer, HTS-7000) to calculate the initial rate of the reaction. Typically, the reaction was carried out in 200 μl of buffer M (50 mM Mes(NaOH) pH 6.5, 150 mM NaCl) containing 100 ng of purified sPHEX and 20 μM of fluorigenic substrate to initiate the reaction. Enzymatic activity was determined by subtracting either the initial rate of substrate in buffer (solvolysis), or the typical reaction rate in which 5 mM EDTA was added prior to initiating the reaction.
# sPHEX inhibitor IC50 determinations were done using the tested inhibitor at various concentrations coming from a serial dilution (usually ranging from 10^−3 M to 10^−12 M) in the reaction described above. IC50 values were calculated using the iterative four parameters non-linear regression formula from the GraphPad™ software (Prism).
row,SMILES,IC50 [nM]
1,"O=C(O)CC(CC(=O)O)C(=O)NCCc1ccc2ccccc2c1 [Example 169, 3-(2-Naphthalen-2-yl-ethylcarbamoyl)-pentanedioic acid]",19000
2,"N#Cc1ccc(-c2ccc(CCNC(=O)C(CC(=O)O)CC(=O)NO)cc2)cc1 (centres unmarked) [Example 130, 3-[2-(4′-Cyano-biphenyl-4-yl)-ethylcarbamoyl]-4-hydroxycarbamoyl-butyric acid]",190
3,"O=C(O)CC(CC(=O)NO)C(=O)NCCc1ccc(-c2ccc(O)cc2)cc1 (centres unmarked) [Example 140, 3-[2-(4′-Hydroxy-biphenyl-4-yl)-ethylcarbamoyl]4-hydroxycarbamoyl-butyric acid]",360
4,"O=C(O)CC(CCC(=O)NO)C(=O)NCCc1ccc(-c2ccccc2)cc1 (centres unmarked) [Example 152, 3-(2-Biphenyl-4-yl-ethylcarbamoyl)-5-hydroxycarbamoyl-pentanoic acid]",1300
5,"CNC(=O)[C@H](Cc1c[nH]c2ccccc12)NC(=O)[C@H](CC(=O)O)NC(=O)CS [Example 115, N-[2-(1H-indol-3-yl)-methylcarbamoyl-ethyl]-3-(2-mercapto-acetylamino)-succinamic acid]",1300
6,"CC(C)[C@H](S)C(=O)N[C@@H](CC(=O)O)C(=O)N[C@@H](Cc1c[nH]c2ccccc12)C(=O)O [Example 92, N-[1-Carboxy-2-(1H-indol-3-yl)-ethyl]-3-(2-mercapto-3-methyl-butyrylamino)-succinamic acid]",5
7,"O=C(O)C[C@H](NC(=O)[C@@H](S)CC1CCCCC1)C(=O)N[C@@H](Cc1c[nH]c2ccccc12)C(=O)O [Example 102, N-[1-Carboxy-2-(1H-indol-3-yl)-ethyl]-3-(3-cyclohexyl-2-mercapto-propionylamino)-succinamic acid]",20
8,"O=C(O)C[C@H](NC(=O)[C@@H](S)Cc1ccccc1)C(=O)N[C@@H](Cc1ccccc1)C(=O)O [Example 109, N-[1-Carboxy-2-phenyl-ethyl)-3-(2-mercapto-3-phenyl-propionylamino)-succinamic acid]",7
9,"O=C(O)CC(CC(=O)NO)C(=O)NCC(c1ccccc1)c1ccccc1 (centres unmarked) [Example 142, 3-(2,2-Diphenyl-ethylcarbamoyl)-4-hydroxycarbamoyl-butyric acid]",54
10,"O=C(O)CC(CC(=O)NO)C(=O)NCCCCCO (centres unmarked) [Example 148, 4-Hydroxycarbamoyl-3-(5-hydroxy-pentylcarbamoyl)-butyric acid]",1700
11,"O=C(O)C[C@H](NC(=O)[C@@H](S)c1ccccc1)C(=O)N[C@@H](Cc1c[nH]c2ccccc12)C(=O)O [Example 97, N-[1-Carboxy-2-(1H-indol-3-yl)-ethyl]-3-(2-mercapto-2-phenyl-acetylamino)-succinamic acid]",3
12,"O=C(O)C[C@H](NC(=O)[C@@H](S)Cc1ccccc1)C(=O)N[C@@H](Cc1ccc2ccccc2c1)C(=O)O [Example 106, N-(1-Carboxy-2-naphthalen-2-yl-ethyl)-3-(2-mercapto-3-phenylpropionylamino)-succinamic acid]",6
13,"CCCC[C@H](S)C(=O)N[C@@H](CC(=O)O)C(=O)N[C@@H](Cc1c[nH]c2ccccc12)C(=O)O [Example 95, N-[1-Carboxy-2-(1H-indol-3-yl)-ethyl]-3-(2-mercapto-hexanoylamino)-succinamic acid]",7
14,"O=C(O)C[C@H](NC(=O)[C@@H](S)Cc1ccc(F)cc1)C(=O)N[C@@H](Cc1c[nH]c2ccccc12)C(=O)O [Example 100, N-[1-Carboxy-2-(1H-indol-3-yl)-ethyl]-3-[3-(4-fluoro-phenyl)-2-mercapto-propionylamino]-succinamic acid]",6
15,"C[C@H](O)[C@H](S)C(=O)N[C@@H](CC(=O)O)C(=O)N[C@@H](Cc1c[nH]c2ccccc12)C(=O)O [Example 94, N-[1-Carboxy-2-(1H-indol-3-yl)-ethyl]-3-(3-hydroxy-2-mercapto-butyrylamino)-succinamic acid]",4
16,"O=C(O)C[C@H](NC(=O)[C@@H](S)CCc1ccccc1)C(=O)N[C@@H](Cc1c[nH]c2ccccc12)C(=O)O [Example 96, N-[1-Carboxy-2-(1H-indol-3-yl)-ethyl]-3-(2-mercapto-4-phenyl-butyrylamino)-succinamic acid]",4
17,"O=C(O)C[C@H](NC(=O)[C@@H](S)CO)C(=O)N[C@@H](Cc1c[nH]c2ccccc12)C(=O)O [Example 93, N-[1-Carboxy-2-(1H-indol-3-yl)-ethyl]-3-(3-hydroxy-2-mercapto-propionylamino)-succinamic acid]",48
18,"O=C(O)C[C@H](NC(=O)[C@@H](S)Cc1ccc(OCc2ccccc2)cc1)C(=O)N[C@@H](Cc1c[nH]c2ccccc12)C(=O)O [Example 99, 3-(3-(4-Benzyloxy-phenyl)-2-mercapto-propionylamino)-N-[1-Carboxy-2-(1H-indol-3-yl)-ethyl]-succinamic acid]",8
19,"O=C(O)CC(CC(=O)NO)C(=O)NCCOc1ccccc1 (centres unmarked) [Example 138, 4-Hydroxycarbamoyl-3-(2-phenoxy-ethylcarbamoyl)-butyric acid]",860
20,"O=C(O)C[C@H](NC(=O)[C@@H](S)Cc1ccc2ccccc2c1)C(=O)N[C@@H](Cc1c[nH]c2ccccc12)C(=O)O [Example 104, N-[1-Carboxy-2-(1H-indol-3-yl)-ethyl]-3-(2-mercapto-3-naphthalen-2-yl-propionylamino]-succinamic acid]",15
21,"O=C(O)C[C@H](NC(=O)[C@@H](S)Cc1ccccc1)C(=O)N[C@H](CO)Cc1ccccc1 [Example 111, N-(1-Benzyl-2-hydroxy-ethyl)-3-(2-mercapto-3-phenyl-propionylamino)-succinamic acid]",90
22,"C[C@H](S)C(=O)N[C@@H](CC(=O)O)C(=O)N[C@@H](Cc1c[nH]c2ccccc12)C(=O)O [Example 90, N-[1-Carboxy-2-(1H-indol-3-yl)-ethyl]-3-(2-mercapto-propionylamino)-succinamic acid]",68
23,"O=C(O)CC(CC(=O)NO)C(=O)NCc1ccc(-c2ccccc2)cc1 (centres unmarked) [Example 150, 3-[(Biphenyl-4-ylmethyl)-carbamoyl]-4-hydroxycarbamoyl-butyric acid]",270
24,"O=C(O)C[C@H](NC(=O)[C@@H](S)Cc1ccc(-c2ccccc2)cc1)C(=O)N[C@@H](Cc1c[nH]c2ccccc12)C(=O)O [Example 98, 3-(3-Biphenyl-4-yl-2-mercapto-propionylamino)-N-[1-Carboxy-2-(1H-indol-3-yl)-ethyl]-succinamic acid]",8
25,"COc1ccc(C[C@H](S)C(=O)N[C@@H](CC(=O)O)C(=O)N[C@@H](Cc2c[nH]c3ccccc23)C(=O)O)cc1 [Example 101, N-[1-Carboxy-2-(1H-indol-3-yl)ethyl]-3-[2-mercapto-3-(methoxy-phenyl)-propionylamino]-succinamic acid]",18
26,"COC(=O)[C@H](Cc1c[nH]c2ccccc12)NC(=O)[C@H](CC(=O)O)NC(=O)CS [Example 117, N-[2-(1H-indol-3-yl)-methoxycarbonyl-etjyl]-3-(2-mercapto-acetylamino)-succinamic acid]",2600
27,"O=C(O)C[C@@H](NC(=O)[C@@H](S)Cc1ccccc1)C(=O)N[C@@H](Cc1c[nH]c2ccccc12)C(=O)O [Example 112, N-[1-Carboxy-2-(1H-indol-3-yl)-ethyl]-3-(2-mercapto-3-phenyl-propionylamino)-succinamic acid]",15
28,"O=C(O)C[C@H](NC(=O)[C@@H](S)Cc1c[nH]c2ccccc12)C(=O)N[C@@H](Cc1c[nH]c2ccccc12)C(=O)O [Example 103, N-[1-Carboxy-2-(1H-indol-3-yl)-ethyl]-3-[3-(1H-indol-3-yl)-2-mercapto-propionylamino]-succinamic acid]",22
29,"O=C(O)C[C@H](NC(=O)CS)C(=O)N[C@@H](Cc1c[nH]c2ccccc12)C(=O)O [Example 87, N-[1-Carboxy-2-(1H-indol-3-yl)-ethyl]-3-(2-mercapto-acetylamino)-succinamic acid]",600
